Test results as given in US5185320A, “O^56 -alkyl derivatives of aglycone and pseudo aglycones of teicoplanin” (Gruppo Lepetit S.p.A., priority 1989, dated 1993).

What was measured:
Format in all cases: cell-based
Conditions in all cases: inoculum about 10^4 CFU/ml, 18-24 h at 37° C.
Staph. aureus Tour L 165 = assay: MIC, standard dilution test, Staph. aureus Tour L 165
Description: (§1) ISOSENSITEST broth (Oxoid) and TOLLD-HEWITT broth (Difco) are used for growing staphylococci and streptococci, respectively. Broth cultures are diluted so that the final inoculum is about 10^4 colony forming units/ml (CFU/ml).

[1] = tested on: Escherichia coli SKF 12140; assay: MIC, standard dilution test, Escherichia coli SKF 12140
Description: as §1

[2] = tested on: Strep. faecalis ATCC 7080; assay: MIC, standard dilution test, Strep. faecalis ATCC 7080
Description: as §1

Strep. pyogenes C 203 = assay: MIC, standard dilution test, Strep. pyogenes C 203
Description: as §1

[3] = tested on: Haemophilus influenzae ATCC 19418; assay: MIC, standard dilution test, Haemophilus influenzae ATCC 19418
Description: as §1

Strep. mitis L 796 = assay: MIC, standard dilution test, Strep. mitis L 796
Description: as §1

Strep. pneumoniae UC41 = assay: MIC, standard dilution test, Strep. pneumoniae UC41
Description: as §1

[4] = tested on: Staph. haemolyticus L 602; assay: MIC, standard dilution test, Staph. haemolyticus L 602
Description: as §1

[5] = tested on: Pseudomonas aeruginosa ATCC 10145; assay: MIC, standard dilution test, Pseudomonas aeruginosa ATCC 10145
Description: as §1

[6] = tested on: Neisseria gonorrhoeae ISM68/126; assay: MIC, standard dilution test, Neisseria gonorrhoeae ISM68/126
Description: as §1

[7] = tested on: Staph. epidermidis ATCC 12228; assay: MIC, standard dilution test, Staph. epidermidis ATCC 12228
Description: as §1

[8] = tested on: Proteus vulgaris ATCC 881; assay: MIC, standard dilution test, Proteus vulgaris ATCC 881
Description: as §1

Compound | Minimal inhibitory concentration (MIC) (Staph. aureus Tour L 165) | Minimal inhibitory concentration (MIC) [1] | Minimal inhibitory concentration (MIC) [2] | Minimal inhibitory concentration (MIC) (Strep. pyogenes C 203) | Minimal inhibitory concentration (MIC) [3] | Minimal inhibitory concentration (MIC) (Strep. mitis L 796) | Minimal inhibitory concentration (MIC) (Strep. pneumoniae UC41) | Minimal inhibitory concentration (MIC) [4] | Minimal inhibitory concentration (MIC) [5] | Minimal inhibitory concentration (MIC) [6] | Minimal inhibitory concentration (MIC) [7] | Minimal inhibitory concentration (MIC) [8]
COC(=O)C1NC(=O)C2NC(=O)C(NC(=O)C3NC(=O)C4NC(=O)C(Cc5ccc(c(Cl)c5)Oc5cc3cc(c5OCCO)Oc3ccc(cc3Cl)C2O)NC(=O)C(N)c2ccc(O)c(c2)Oc2cc(O)cc4c2)c2ccc(O)c(c2)-c2c(O)cc(O)cc21 (stereo not drawn) [Compound 8, O^56-(2-hydroxyethyl) deglucoteicoplanin methyl ester] | 0.125 | 32 | 0.125 | 0.063 | 64 | 0.125 | 0.125 | 2 | > 128 | 32 | 0.125 | > 128
COC(=O)C1NC(=O)C2NC(=O)C(NC(=O)C3NC(=O)C4NC(=O)C(Cc5ccc(c(Cl)c5)Oc5cc3cc(c5OCCBr)Oc3ccc(cc3Cl)C2O)NC(=O)C(N)c2ccc(O)c(c2)Oc2cc(O)cc4c2)c2ccc(O)c(c2)-c2c(O)cc(O)cc21 (stereo not drawn) [Compound 11, O^56-(2-bromoethyl)deglucoteicoplanin methyl ester] | 0.5 | 64 | 1 | 0.125 | 64 | 0.25 | 0.25 | 2 | > 128 | > 128 | 0.125 | > 128
NCCNCCOc1c2cc3cc1Oc1ccc(cc1Cl)C(O)C1NC(=O)C(NC(=O)C3NC(=O)C3NC(=O)C(Cc4ccc(c(Cl)c4)O2)NC(=O)C(N)c2ccc(O)c(c2)Oc2cc(O)cc3c2)c2ccc(O)c(c2)-c2c(O)cc(O)cc2C(C(=O)NCCN)NC1=O (stereo not drawn) [Compound 15, O^56-[2-(1-ethylendiaminyl)ethyl]deglucoteicoplanin ethylenediamine amide] | 0.125 | 8 | 0.25 | 0.063 | 128 | 0.25 | 0.125 | 0.25 | 64 | 64 | 0.125 | 64
NC1C(=O)NC2Cc3ccc(c(Cl)c3)Oc3cc4cc(c3OC3CCOC3=O)Oc3ccc(cc3Cl)C(O)C3NC(=O)C(NC(=O)C4NC(=O)C(NC2=O)c2cc(O)cc(c2)Oc2cc1ccc2O)c1ccc(O)c(c1)-c1c(O)cc(O)cc1C(C(=O)OCc1ccccc1)NC3=O (stereo not drawn) [Compound 21, O^56-(tetrahydro-2-oxo-3-furanyl)deglucoteicoplanin phenylmethyl ester] | 2 | > 128 | 2 | 0.125 | > 128 | 0.25 | 0.25 | 4 | > 128 | > 128 | 1 | > 128
NC1C(=O)NC2Cc3ccc(c(Cl)c3)Oc3cc4cc(c3OC3CCOC3=O)Oc3ccc(cc3Cl)C(O)C3NC(=O)C(NC(=O)C4NC(=O)C(NC2=O)c2cc(O)cc(c2)Oc2cc1ccc2O)c1ccc(O)c(c1)-c1c(O)cc(O)cc1C(C(=O)O)NC3=O (stereo not drawn) [Compound 16, O^56-(tetrahydro-2-oxo-3-furanyl)deglucoteicoplanin] | 0.125 | > 128 | 0.5 | 0.5 | > 128 | 0.5 | 0.25 | 4 | > 128 | 64 | 0.25 | > 128
CNC(=O)C1NC(=O)C2NC(=O)C(NC(=O)C3NC(=O)C4NC(=O)C(Cc5ccc(c(Cl)c5)Oc5cc3cc(c5OCCCCN)Oc3ccc(cc3Cl)C2O)NC(=O)C(N)c2ccc(O)c(c2)Oc2cc(O)cc4c2)c2ccc(O)c(c2)-c2c(O)cc(O)cc21 (stereo not drawn) [Compound 9, O^56-(4-aminobutyl)-deglucoteicoplanin methylamide] | 0.25 | 8 | 0.125 | 0.063 | 64 | 0.125 | 0.125 | 0.25 | 64 | 64 | 0.125 | 32
NC1C(=O)NC2Cc3ccc(c(Cl)c3)Oc3cc4cc(c3OC3CCOC3=O)Oc3ccc(cc3Cl)C(O)C3NC(=O)C(NC(=O)C4NC(=O)C(NC2=O)c2cc(O)cc(c2)Oc2cc1ccc2O)c1ccc(O)c(c1)-c1c(O)cc(O)cc1C(C(=O)OC1CCOC1=O)NC3=O (stereo not drawn) [Compound 23, O^56-(tetrahydro-2-oxo-3-furanyl)deglucoteicoplanin (tetrahydro-2-oxo-3-furanyl) ester] | 0.5 | > 128 | 1 | 2 | > 128 | 2 | 0.5 | 8 | > 128 | > 128 | 0.25 | > 128
O-(2-(3-(4-(3-amino-propyl)amino)butyl)amino)propyl)amino)-1-hydroxy-2-oxoethyl)teicoplanin aglycone 1-(3-(4-(3-aminopropyl) amino)butyl)amino)propyl)amino)carbonyl)-3-hydroxy-propyl ester [Compound 25] | 0.25 | 32 | 1 | 0.125 | > 128 | 0.125 | 0.125 | 0.25 | > 128 | > 128 | 0.125 | 64
COC(=O)C1NC(=O)C2NC(=O)C(NC(=O)C3NC(=O)C4NC(=O)C(Cc5ccc(c(Cl)c5)Oc5cc3cc(c5OC(CCO)C(=O)NCCN)Oc3ccc(cc3Cl)C2O)NC(=O)C(N)c2ccc(O)c(c2)Oc2cc(O)cc4c2)c2ccc(O)c(c2)-c2c(O)cc(O)cc21.Cl (stereo not drawn) [Compound 4, O^56-[1-[[2-aminoethylamino]carbonyl]3-hydroxypropyl]deglucoteicoplanin methyl ester hydrochloride] | 0.125 | 16 | 0.25 | 0.063 | 128 | 0.125 | 0.25 | 0.5 | 64 | 64 | 0.125 | 128
COC(=O)C1NC(=O)C2NC(=O)C(NC(=O)C3NC(=O)C4NC(=O)C(Cc5ccc(c(Cl)c5)Oc5cc3cc(c5OCC3CO3)Oc3ccc(cc3Cl)C2O)NC(=O)C(N)c2ccc(O)c(c2)Oc2cc(O)cc4c2)c2ccc(O)c(c2)-c2c(O)cc(O)cc21.Cl (stereo not drawn) [Compound 1, O^56-(2,3-epoxypropyl)deglucoteicoplanin methyl ester] | 0.125 | 32 | 0.5 | 0.063 | 64 | 0.25 | 0.125 | 1 | > 128 | 64 | 0.063 | 64
O^56 -(2-bromoethyl)deglucoteicoplanin phenylmethyl ester [Compound 19] | 1 | > 128 | 4 | 0.25 | > 128 | 0.25 | 0.5 | 4 | > 128 | > 128 | 0.5 | > 128
